The structures appear in SMILES notation. Where two headings read alike, the source gives them in different places. A value given as a limit tells only on which side of the number the result lay.

Series [1] has as its target T1, KOR (Homo sapiens, UniProt P41145). The series is described as follows: biochemical. It is filed as biochemical. The following applies: for EC50: read-out: EC50 c.
The target of series [2] is T1, KOR. It is filed as binding. The following applies: read-out: Ki a.
Series [3] addresses T1, KOR. It is filed as binding. The conditions noted are these: read-out: Ki b.
The subject of series [4] is C57BL/6J mice. It is filed as in vivo, mouse. The conditions noted are these: for baseline startle activity: 120-dB stimulus, all doses; for prepulse-dependent PPI: all prepulse intensities.
The target in series [5] is T1, KOR. The series is described as follows: biochemical. It is filed as binding.
A short description of series [6]: storage stability of the compound. The conditions noted are these: room temperature / prolonged storage.

T1 sequence (P41145 whole entry): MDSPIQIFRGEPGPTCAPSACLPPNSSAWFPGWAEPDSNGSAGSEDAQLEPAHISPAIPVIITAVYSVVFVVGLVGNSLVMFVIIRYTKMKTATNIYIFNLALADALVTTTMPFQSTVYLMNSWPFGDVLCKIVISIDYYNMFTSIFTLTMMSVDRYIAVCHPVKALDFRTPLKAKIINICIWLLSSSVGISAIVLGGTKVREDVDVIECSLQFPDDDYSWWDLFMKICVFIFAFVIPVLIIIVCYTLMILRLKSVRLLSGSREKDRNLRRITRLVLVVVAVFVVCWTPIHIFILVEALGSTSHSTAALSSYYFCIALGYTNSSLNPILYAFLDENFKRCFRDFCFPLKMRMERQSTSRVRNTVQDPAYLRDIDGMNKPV

For `COC(=O)C1CC(OC(=O)C(C)Cl)C(=O)C2C1(C)CCC1C(=O)OC(c3ccoc3)CC12C` (single isomer, unassigned) [RB-55-1, (22-S)-22-Chloro-22-methylsalvinorin A], the “Relative Emax” value in series [1] is 99 +/− 12%. Besides, in series [1], the EC50 (as a rule, the concentration at which the effect is half-maximal) was 160 nM. The Ki (commonly the equilibrium dissociation constant of an inhibitor or competing ligand from its target) in series [2] came out at 30 ± 15 nM; in series [3] it was 269 ± 48 nM.
The corresponding values for `COC(=O)C1CC(OC(=O)C(C)Cl)C(=O)C2C1(C)CCC1C(=O)OC(c3ccoc3)CC12C` (single isomer, unassigned) [RB-55-2, (22-R)-22-Chloro-22-methylsalvinorin A] are 98 +/− 8%, 273 nM, 58 ± 32 nM and greater than 3000 nM.
As to `Oc1ccc2c3c1O[C@H]1c4[nH]c5c(c4C[C@@]4(O)[C@@H](C2)N(CC2CC2)CC[C@]314)C[C@@]1(O)[C@H]2Cc3ccc(O)c4c3[C@@]1(CCN2CC1CC1)[C@H]5O4` [Nor-BNI, nor-binaltorphimine, reference compound], the “antagonism of agonist-induced disruption of PPI” value in series [4] (mouse, in vivo) was “antagonized salvinorin A and RB-64-induced disruption of PPI”.
In the case of `COC(=O)[C@@H]1C[C@H](OC(=O)CCl)C(=O)[C@H]2[C@@]1(C)CC[C@H]1C(=O)O[C@H](c3ccoc3)C[C@]21C` [RB-48, 22-Chlorosalvinorin A], in series [1], the “Relative Emax” value is reported as 85 ± 3% and the EC50 was 0.19 ± 0.01 nM. The “wash-resistant inhibition of binding (preliminary studies)” value in series [5] is recorded as “resulted in wash-resistant inhibition of binding”. Besides, the Ki in series [2] turned out to be 2.1 ± 0.8 nM. Further, in series [3], the Ki stood at 32 ± 15 nM.
For `COC(=O)[C@@H]1C[C@H](OC(=O)CBr)C(=O)[C@H]2[C@@]1(C)CC[C@H]1C(=O)O[C@H](c3ccoc3)C[C@]21C` [RB-50, 22-Bromosalvinorin A], in series [1], the “Relative Emax” value is on record as 76 +/− 7% and the EC50 stood at 11 nM. In series [6], the stability on storage entry is “highly unstable at room temperature”. Further, in series [5], the “irreversible inhibition of binding, tested as potential affinity ligand” value was “none showed significant irreversible inhibition of binding”. In addition, in series [2], the Ki was 1.5 ± 0.22 nM. The Ki in series [3] amounted to 39.6 ± 11.6 nM.
As for `COC(=O)C1CC(OC(=O)C(C)Cl)C(=O)C2C1(C)CCC1C(=O)OC(c3ccoc3)CC12C` [RB-55, (22-R,S)-22-Chloro-22-methylsalvinorin A], in series [1], the “Relative Emax” value is given as 83 +/− 10%. The EC50 in series [1] came out at 35 nM. Further, the inhibitory constant (Ki) was determined as 21 ± 3 nM in series [2] and 189 ± 70.1 nM in series [3].
Regarding `COC(=O)[C@@H]1C[C@H](OC(=O)CSC#N)C(=O)[C@H]2[C@@]1(C)CC[C@H]1C(=O)O[C@H](c3ccoc3)C[C@]21C` [RB-64, 22-Thiocyanatosalvinorin A], the Emax (in general, the size of the effect at its maximum, as opposed to the concentration needed) in series [1] (read-out: Relative Emax) was 95 ± 2%. Also, in series [6], the stability on storage entry is “stable compound and may be stored for prolonged time without decomposition”. Moreover, in series [5], the “maximum of KOR labeled” value turned out to be 59%. In addition, in series [5], the “wash-resistant inhibition of KOR binding” value is on record as 82%. In series [5] (EC50 for wash-resistant inhibition of binding), this molecule displayed an EC50 of 9000 nM. The “Null Activity (mAmp displacement)” value in series [4] (0.005 mg/kg i.p., mice) is on record as 8.22 ± 3.73 mAmp displacement; in series [4] (0.01 mg/kg i.p., mice), 16.81 ± 4.4 mAmp displacement; in series [4] (0.05 mg/kg i.p., mice) it was 64.89 ± 10.88 mAmp displacement; in series [4] (0.1 mg/kg i.p., mice), 51.6 ± 12.16 mAmp displacement. For the same molecule, the “PPI responses to the 12- and 16-dB prepulses” value is “depressed responses” in series [4] (0.005 mg/kg, p < 0.010) and “increased the responses” in series [4] (0.05 mg/kg, p < 0.052). Also, the “overall PPI (overall inhibition) vs vehicle” value in series [4] (0.1 mg/kg i.p., p < 0.046) was “significant reduction in overall inhibition”; in series [4] (0.01 and 0.05 mg/kg i.p., p < 0.021) it was “marked increases in overall inhibition”. In addition, the “PPI to the 4 dB prepulse vs vehicle” value in series [4] (0.005, 0.01, or 0.05 mg/kg, p < 0.047) was “enhanced relative to vehicle”. For the same molecule, the “PPI to the 8-dB prepulse vs vehicle” value in series [4] (0.01 and 0.05 mg/kg, p < 0.031) was “increased PPI to the 8-dB prepulse”. For the same molecule, in series [4], the baseline startle activity result was “dose-dependent parabolic changes in baseline startle activity”. Moreover, the “prepulse-dependent PPI” value in series [4] was “disrupted prepulse-dependent PPI at all prepulse intensities”. In addition, the “PPI responses to the 12- and 16-dB prepulses vs vehicle” value in series [4] (highest dose (0.1 mg/kg), p < 0.003) is given as “significantly depressed compared to the vehicle control”. Also, in series [4] (in vivo studies (PPI), mice), the “in vivo efficacy relative to salvinorin A” value is listed as 20 fold. Besides, the “null activity, in words” value is given as “increased activity” in series [4] (two highest doses (0.05, 0.1 mg/kg), compared to vehicle, p < 0.001) and “little effect on null activity” in series [4] (two lower doses (0.005, 0.01 mg/kg)).
With `COCC(=O)O[C@H]1C[C@@H](C(=O)OC)[C@]2(C)CC[C@H]3C(=O)O[C@H](c4ccoc4)C[C@]3(C)[C@H]2C1=O` [RB-65, 22-Methoxysalvinorin A], in series [1], the “Relative Emax” value is on record as 99 +/− 11% and the 50% effective concentration (EC50) is 67 nM. For the same molecule, in series [2], the Ki turned out to be 5.7 ± 1.2 nM. Moreover, in series [3], the Ki amounted to 431 ± 54.1 nM.
As to `COC(=O)C1CC(OC(=O)C(Cl)Cl)C(=O)C2C1(C)CCC1C(=O)OC(c3ccoc3)CC12C` (stereo not shown) [RB-66, 22,22-Dichlorosalvinorin A], in series [1], the “Relative Emax” value is 103 +/− 14% and the EC50 was found to be 1680 nM. The Ki in series [2] worked out at 911 ± 170 nM. The Ki in series [3] is greater than 10000 nM.
On to `COC(=O)[C@@H]1C[C@H](OC(C)=O)C(=O)[C@H]2[C@@]1(C)CC[C@H]1C(=O)O[C@H](c3ccoc3)C[C@]21C` [Salvinorin A, reference compound], for which, in series [5], the “effect on radioligand binding after incubation and washing (controls)” value was “did not substantially alter radioligand binding”. In addition, the “Null Activity (mAmp displacement)” value in series [4] (0.25 mg/kg i.p., mice) is 19.44 ± 5.83 mAmp displacement; in series [4] (0.5 mg/kg i.p., mice), 28.79 ± 3.99 mAmp displacement; in series [4] (1.0 mg/kg i.p., mice), 13.63 ± 3.65 mAmp displacement; in series [4] (2.0 mg/kg i.p., mice), 13.76 ± 3.65 mAmp displacement. In addition, in series [4] (0.5 mg/kg, compared to all other doses and vehicle, p < 0.001), the “null activity, in words” value was “significant increases in null activity”. The “PPI at the 8-, 12-, and 16-dB prepulses vs vehicle” value in series [4] (2 mg/kg) is given as “marked reductions in PPI”. The “PPI responses to 4 dB prepulse vs vehicle” value in series [4] (2 mg/kg) was “unchanged from the vehicle control”. In addition, the “overall PPI (overall inhibition) vs vehicle” value is “significantly suppressed inhibition” in series [4] (2 mg/kg i.p., p < 0.044) and “similar” in series [4] (0.25, 0.5, or 1 mg/kg i.p.). Besides, the “PPI responses at the 8- and 12-dB prepulses vs vehicle” value in series [4] (0.25, 0.5, or 1 mg/kg) was “similar”. Also, the “PPI to the 4-dB prepulse vs vehicle” value in series [4] (0.25, 0.5 or 1 mg/kg, p < 0.051) was “increased PPI to the 4-dB prepulse”. Moreover, the baseline startle activity entry in series [4] is listed as “dose-dependent parabolic changes in baseline startle activity”. Moreover, the “prepulse-dependent PPI” value in series [4] is reported as “disrupted prepulse-dependent PPI at all prepulse intensities”.

The values above are taken from article PMC2752672 (Biochemistry, 2009).
